Experimental findings from PMC11512107, “Structural and biochemical analysis of ligand binding in yeast Niemann–Pick type C1–related protein” (Life Science Alliance, 2024) are described below.

In one assay the target is T1, NPC2 (Saccharomyces cerevisiae, UniProt Q12408).
T1 construct: residues 1–173, UniProt: Q12408; thrombin cleavage site (C); deca-histidine tag (C, cleaved yes); made in house; host or cells: Saccharomyces cerevisiae strain DSY-5
T1 sequence (Q12408 22-173): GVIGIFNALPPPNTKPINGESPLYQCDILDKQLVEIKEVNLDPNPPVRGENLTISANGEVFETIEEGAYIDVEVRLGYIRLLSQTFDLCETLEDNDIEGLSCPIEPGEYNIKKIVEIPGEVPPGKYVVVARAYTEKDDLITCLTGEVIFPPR
Briefly: In vitro liposome crosslinking assay of pac-lipids with NPC2. The class given is binding. As to the method:
To compare with the interaction profile of the NTD, crosslinking assays were also performed with purified, delipidated NPC2 (Fig S4A and B). […] NPC2 crosslinks well with all tested pac-lipids but, as for the NTD, most strongly with pacChol (+UV/−UV ratio = 1.91). Robust and consistent crosslinking with pacSph (+UV/−UV ratio = 1.64), pacCer (+UV/−UV = 1.67), and pacPC (+UV/−UV = 1.63) were observed. The crosslinking efficiency for cholesterol and sphingosine analogs was higher for the NTD, whereas crosslinking with ceramide and PC analogs seemed stronger with NPC2.
Lipids from stock vials were dissolved in chloroform and mixed at the desired molar ratio. For in vitro crosslinking, most liposomes consisted of 88.5 mol% DOPC as carrier lipid, 10 mol% DOPS, and 1.5 mol% respective pac-lipid. The pac-lipids were incorporated into liposomes at low concentrations (1.5 mol%) to ensure homogenous distribution and avoid micelle formation. The solvent was evaporated in a rotary evaporator (Hei-VAP Core, Heidolph) for 30 min at 42°C at 150 rpm to create a thin lipid film. Lipid films were hydrated with filtered and degassed PBS (137 mM NaCl, 2.7 mM KCl, 10 mM Na2HPO4, 1.8 mM KH2PO4, pH 7.4). Solutions of hydrated lipids (with a total lipid concentration of 2 mM) were subjected to five freeze–thaw cycles in liquid nitrogen and warm water (42°C) to facilitate breakup of large structures and support formation of smaller multilamellar vesicles. Lipid solutions were stored at −20°C. Before use, liposomes were extruded by passing 20x through a 100-nm pore size polycarbonate filter (Nuclepore; Whatman) using a hand extruder (Avanti Polar Lipids). Extruded liposomes were stored at 4°C, protected from light, and used within 1–2 d.
Extruded liposomes were diluted in PBS until a final lipid concentration of 60 μM, including 1 μM pac-lipid. Purified proteins were added until a final concentration of 1.5 μM in a reaction volume of 100 μl. Protein–liposome mixtures were incubated in 0.5-ml Eppendorf tubes for 30 min at 37°C at 400 rpm (Comfort thermomixer, Eppendorf), then crosslinked (or not) by exposure to 365-nm UV light for 15 min at 4°C using a 100-W mercury lamp (Blak-Ray B-100AP). After crosslinking, the click reaction was performed by adding 0.7 μl of freshly prepared click mix into the sample tubes. The final concentrations of click reagents in sample tubes were 80 μM CuSO4 (Merck), 3 μM TBTA (Merck), 3 μM AF647-picolyl azide (Jena Bioscience), and 80 μM ascorbic acid (Merck). Fresh stock of ascorbic acid solution in water was prepared every time and added to the click mix immediately before starting the click reaction. Click reactions were allowed to proceed for 2 h at 37°C at 400 rpm with the thermomixer. Then, samples were concentrated in a vacuum evaporator for 30 min set to 30°C and supplemented with 4x Lämmli buffer (250 mM Tris, pH 6.8, 9.2% SDS, 40% glycerol, 0.2% bromophenol blue, 100 mM DTT). Samples were boiled for 5 min at 95°C, and clicked protein–lipid complexes were resolved by SDS–PAGE. After extensive destaining in a destain solution (65% water, 25% isopropanol, and 10% acetic acid), the AF647 (a structural analog of Alexa Fluor 647) and Coomassie images were acquired using the LI-COR Odyssey imaging system. Data were evaluated by subtracting background fluorescence, followed by comparing the AF647 signal between crosslinked and non-crosslinked samples, normalized to protein loading based on Coomassie staining. The resulting values are described as +UV/−UV ratios. Statistics were calculated with the Mann–Whitney U test.

The target of another assay is T2, NTD of NCR1 (Saccharomyces cerevisiae, UniProt Q12200).
T2 construct: residues 1–249, UniProt: Q12200; thrombin cleavage site (C); deca-histidine tag (C, cleaved yes); made in house; host or cells: Saccharomyces cerevisiae strain DSY-5
The assay can be described thus: In vitro liposome crosslinking assay of pac-lipids with the NTD. The class given is binding. Conditions: liposomes with 1.5 mol% pac-lipid (1 μM), 1.5 μM NTD, average ratio. The text has this: In a parallel approach, the substrate scope of the NTD and NPC2 was probed with photo-activatable and clickable (pac) lipids. Pac-lipids contain small chemical modifications for click chemistry reactions, with fluorophores such as AF647 (a structural analog of Alexa Fluor 647), and for UV-activated photo-crosslinking, respectively ([45]). In contrast to NBD-tagged lipids delivered in solution, pac-lipids such as pac-cholesterol (pacChol), pac-phosphatidylcholine (pacPC), pac-sphingosine (pacSph), and pac-ceramide (pacCer) were reconstituted in liposomal membranes (Fig 5A and B). As expected, the delipidated NTD crosslinks with pacChol (average +UV/−UV ratio = 2.11). Crosslinking of the NTD with pacSph (+UV/−UV = 1.73) and, to a lesser extent, with pacCer and pacPC (+UV/−UV = 1.40 and 1.12), respectively, was also detected (Fig 5C and D).
Lipids from stock vials were dissolved in chloroform and mixed at the desired molar ratio. […]
Extruded liposomes were diluted in PBS until a final lipid concentration of 60 μM, including 1 μM pac-lipid. […] Data were evaluated by subtracting background fluorescence, followed by comparing the AF647 signal between crosslinked and non-crosslinked samples, normalized to protein loading based on Coomassie staining. […] Statistics were calculated with the Mann–Whitney U test.

Where [1] appears, read: 20 mol% ergosterol: 1 μM pac-lipid and 13 μM ergosterol.

T2 sequence (Q12200 20-249): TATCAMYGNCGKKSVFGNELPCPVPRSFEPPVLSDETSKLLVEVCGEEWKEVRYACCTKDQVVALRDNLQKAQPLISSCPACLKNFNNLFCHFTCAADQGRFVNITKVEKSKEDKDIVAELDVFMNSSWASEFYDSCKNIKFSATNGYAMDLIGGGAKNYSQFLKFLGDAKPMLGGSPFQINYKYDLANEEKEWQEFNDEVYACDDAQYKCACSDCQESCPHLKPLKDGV

Regarding `CC(C)[C@@H](C)/C=C/[C@@H](C)[C@H]1CC[C@H]2C3=CC=C4C[C@@H](O)CC[C@]4(C)[C@H]3CC[C@]12C` [Ergosterol, ergosterol], on NPC2 (setting [1]), the “effect of ergosterol on NPC2 crosslinking with pacChol and pacPC” value is “does not visibly influence”; the “effect of ergosterol on NPC2 crosslinking with pacSph and pacCer” value is “trend toward increased crosslinking”. The “effect of ergosterol on NPC2 crosslinking with pacSph and pacCer” value at NPC2 (20 mol% ergosterol: 1 μM pac-lipid and 13 μM ergosterol, listed as ergosterol) was “increased crosslinking”.
With `C#CCCCCOC(=O)CCC(C)C1CCC2C3CC4(N=N4)C4CC(O)CCC4(C)C3CCC12C` (centres unmarked) [pacChol], the “+UV/−UV ratio (crosslinking with NPC2)” value at NPC2 (liposomes with 1.5 mol% pac-lipid (1 μM), 1.5 μM NPC2) came out at 1.91. Besides, the “+UV/−UV ratio (crosslinking with NTD)” value on NTD of NCR1 came out at 2.11.
